# Test results from the kinase profiling compilation of Christmann-Franck et al. (2016).
# What was measured:
# Test in all cases: radiometric filter-binding kinase assay, Kinase HotSpot
# Details in all cases: compound 0.5 µM; ATP 10 µM
# CSK (human) = CSK (human) (UniProt P41240)
# AKT2 (human) = AKT2 (human) (UniProt P31751)
# CDC42BPA (human) = CDC42BPA (human) (UniProt Q5VT25)
# INSR (human) = INSR (human) (UniProt P06213)
# CAMK1 (human) = CAMK1 (human) (UniProt Q14012)
# TGFBR2 (human) = TGFBR2 (human) (UniProt P37173)
# EPHA8 (human) = EPHA8 (human) (UniProt P29322)
# MAPKAPK3 (human) = MAPKAPK3 (human) (UniProt Q16644)
# RET (human) = RET (human) (UniProt P07949)
# NEK9 (human) = NEK9 (human) (UniProt Q8TD19)
# PRKG2 (human) = PRKG2 (human) (UniProt Q13237)
# PKN1 (human) = PKN1 (human) (UniProt Q16512)
# MAP3K8 (human) = MAP3K8 (human) (UniProt P41279)
# PAK1 (human) = PAK1 (human) (UniProt Q13153)
# RPS6KA2 KD1 KD2 (human) = RPS6KA2 KD1 KD2 (human) (UniProt Q15349)
# LCK (human) = LCK (human) (UniProt P06239)
# DAPK1 (human) = DAPK1 (human) (UniProt P53355)
# PAK2 (human) = PAK2 (human) (UniProt Q13177)
# MAP4K5 (human) = MAP4K5 (human) (UniProt Q9Y4K4)
# ABL2 (human) = ABL2 (human) (UniProt P42684)
# DYRK1B (human) = DYRK1B (human) (UniProt Q9Y463)
# FGFR4 (human) = FGFR4 (human) (UniProt P22455)
# SRPK1 (human) = SRPK1 (human) (UniProt Q96SB4)
# RPS6KB1 (human) = RPS6KB1 (human) (UniProt P23443)
# HIPK3 (human) = HIPK3 (human) (UniProt Q9H422)
# MAPK11 (human) = MAPK11 (human) (UniProt Q15759)
# NEK6 (human) = NEK6 (human) (UniProt Q9HC98)
# TBK1 (human) = TBK1 (human) (UniProt Q9UHD2)
# FLT1 (human) = FLT1 (human) (UniProt P17948)
# KIT (human) = KIT (human) (UniProt P10721)
# ACVR1 (human) = ACVR1 (human) (UniProt Q04771)
# CDK3 CCNE1 (human) = CDK3 CCNE1 (human) (UniProt Q00526+P24864)
# ULK2 (human) = ULK2 (human) (UniProt Q8IYT8)
# MUSK (human) = MUSK (human) (UniProt O15146)
# STK3 (human) = STK3 (human) (UniProt Q13188)
# CHUK (human) = CHUK (human) (UniProt O15111)
# TAOK3 (human) = TAOK3 (human) (UniProt Q9H2K8)
# PHKG1 (human) = PHKG1 (human) (UniProt Q16816)
# RPS6KA1 KD1 KD2 (human) = RPS6KA1 KD1 KD2 (human) (UniProt Q15418)
# VRK1 (human) = VRK1 (human) (UniProt Q99986)
# SRC (human) = SRC (human) (UniProt P12931)
# IKBKB (human) = IKBKB (human) (UniProt O14920)
# PAK2 (human), sequence (Q13177 whole entry, looked up): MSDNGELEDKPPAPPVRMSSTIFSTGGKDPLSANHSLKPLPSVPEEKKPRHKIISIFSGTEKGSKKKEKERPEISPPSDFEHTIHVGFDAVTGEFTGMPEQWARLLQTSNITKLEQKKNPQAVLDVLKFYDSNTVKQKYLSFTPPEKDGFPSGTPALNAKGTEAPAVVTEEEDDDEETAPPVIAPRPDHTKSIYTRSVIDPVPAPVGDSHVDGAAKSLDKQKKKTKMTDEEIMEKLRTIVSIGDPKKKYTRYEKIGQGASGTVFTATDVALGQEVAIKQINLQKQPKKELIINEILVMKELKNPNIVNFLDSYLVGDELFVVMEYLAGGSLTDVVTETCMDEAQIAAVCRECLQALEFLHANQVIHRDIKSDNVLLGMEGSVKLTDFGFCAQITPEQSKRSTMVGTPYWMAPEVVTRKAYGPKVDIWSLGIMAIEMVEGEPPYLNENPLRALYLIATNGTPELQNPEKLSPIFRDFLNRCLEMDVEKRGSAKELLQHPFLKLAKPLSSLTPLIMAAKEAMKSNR
# VRK1 (human), sequence (Q99986 whole entry, looked up): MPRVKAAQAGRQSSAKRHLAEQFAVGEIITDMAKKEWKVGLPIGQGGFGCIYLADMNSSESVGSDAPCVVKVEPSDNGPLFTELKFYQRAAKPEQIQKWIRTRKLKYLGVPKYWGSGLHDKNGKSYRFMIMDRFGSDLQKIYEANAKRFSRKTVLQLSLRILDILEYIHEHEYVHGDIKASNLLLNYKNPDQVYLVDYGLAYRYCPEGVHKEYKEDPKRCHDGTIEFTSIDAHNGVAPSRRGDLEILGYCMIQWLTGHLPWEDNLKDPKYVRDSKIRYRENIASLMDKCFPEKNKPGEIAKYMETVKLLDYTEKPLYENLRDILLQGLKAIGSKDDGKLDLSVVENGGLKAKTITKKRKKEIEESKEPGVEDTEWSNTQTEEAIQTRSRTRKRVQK
# KIT (human), sequence (P10721 whole entry, looked up): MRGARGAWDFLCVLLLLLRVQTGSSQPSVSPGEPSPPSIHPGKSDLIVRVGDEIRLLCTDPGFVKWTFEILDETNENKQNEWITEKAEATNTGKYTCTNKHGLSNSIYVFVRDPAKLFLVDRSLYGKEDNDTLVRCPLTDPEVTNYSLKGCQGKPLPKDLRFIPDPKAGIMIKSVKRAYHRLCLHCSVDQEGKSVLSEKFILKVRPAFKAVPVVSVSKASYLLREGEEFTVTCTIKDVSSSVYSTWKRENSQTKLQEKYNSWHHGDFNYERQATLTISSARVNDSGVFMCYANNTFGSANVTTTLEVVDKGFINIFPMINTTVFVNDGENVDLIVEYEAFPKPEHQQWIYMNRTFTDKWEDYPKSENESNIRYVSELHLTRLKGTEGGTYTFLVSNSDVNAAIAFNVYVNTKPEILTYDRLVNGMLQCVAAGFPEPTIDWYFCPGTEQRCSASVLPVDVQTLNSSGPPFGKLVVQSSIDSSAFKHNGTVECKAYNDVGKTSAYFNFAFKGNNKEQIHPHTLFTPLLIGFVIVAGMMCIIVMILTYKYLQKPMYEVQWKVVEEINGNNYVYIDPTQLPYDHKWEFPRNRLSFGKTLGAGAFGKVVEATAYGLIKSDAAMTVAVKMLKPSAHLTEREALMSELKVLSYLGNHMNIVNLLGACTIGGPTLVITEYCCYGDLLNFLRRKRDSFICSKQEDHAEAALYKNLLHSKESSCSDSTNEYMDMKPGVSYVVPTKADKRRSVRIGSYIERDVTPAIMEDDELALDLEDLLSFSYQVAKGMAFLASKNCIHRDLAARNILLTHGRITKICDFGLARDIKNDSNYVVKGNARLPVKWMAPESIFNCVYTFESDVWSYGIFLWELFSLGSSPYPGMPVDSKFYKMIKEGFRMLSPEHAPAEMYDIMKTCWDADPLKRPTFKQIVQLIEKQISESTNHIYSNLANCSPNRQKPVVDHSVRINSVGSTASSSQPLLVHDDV
# ACVR1 (human), sequence (Q04771 whole entry, looked up): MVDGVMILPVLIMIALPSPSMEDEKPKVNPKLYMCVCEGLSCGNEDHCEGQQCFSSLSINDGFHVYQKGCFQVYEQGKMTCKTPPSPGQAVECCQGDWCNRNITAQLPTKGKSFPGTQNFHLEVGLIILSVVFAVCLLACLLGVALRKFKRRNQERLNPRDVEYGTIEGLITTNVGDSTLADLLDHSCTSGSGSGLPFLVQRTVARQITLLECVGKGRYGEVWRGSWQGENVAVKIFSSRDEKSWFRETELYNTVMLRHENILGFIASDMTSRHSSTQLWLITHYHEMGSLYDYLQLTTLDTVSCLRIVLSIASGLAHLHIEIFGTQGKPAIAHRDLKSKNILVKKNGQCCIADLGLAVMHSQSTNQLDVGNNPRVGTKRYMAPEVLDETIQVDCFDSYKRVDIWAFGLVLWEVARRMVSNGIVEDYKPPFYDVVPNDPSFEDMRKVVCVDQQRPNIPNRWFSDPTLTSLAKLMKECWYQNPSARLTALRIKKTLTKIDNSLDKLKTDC
# FGFR4 (human), sequence (P22455 whole entry, looked up): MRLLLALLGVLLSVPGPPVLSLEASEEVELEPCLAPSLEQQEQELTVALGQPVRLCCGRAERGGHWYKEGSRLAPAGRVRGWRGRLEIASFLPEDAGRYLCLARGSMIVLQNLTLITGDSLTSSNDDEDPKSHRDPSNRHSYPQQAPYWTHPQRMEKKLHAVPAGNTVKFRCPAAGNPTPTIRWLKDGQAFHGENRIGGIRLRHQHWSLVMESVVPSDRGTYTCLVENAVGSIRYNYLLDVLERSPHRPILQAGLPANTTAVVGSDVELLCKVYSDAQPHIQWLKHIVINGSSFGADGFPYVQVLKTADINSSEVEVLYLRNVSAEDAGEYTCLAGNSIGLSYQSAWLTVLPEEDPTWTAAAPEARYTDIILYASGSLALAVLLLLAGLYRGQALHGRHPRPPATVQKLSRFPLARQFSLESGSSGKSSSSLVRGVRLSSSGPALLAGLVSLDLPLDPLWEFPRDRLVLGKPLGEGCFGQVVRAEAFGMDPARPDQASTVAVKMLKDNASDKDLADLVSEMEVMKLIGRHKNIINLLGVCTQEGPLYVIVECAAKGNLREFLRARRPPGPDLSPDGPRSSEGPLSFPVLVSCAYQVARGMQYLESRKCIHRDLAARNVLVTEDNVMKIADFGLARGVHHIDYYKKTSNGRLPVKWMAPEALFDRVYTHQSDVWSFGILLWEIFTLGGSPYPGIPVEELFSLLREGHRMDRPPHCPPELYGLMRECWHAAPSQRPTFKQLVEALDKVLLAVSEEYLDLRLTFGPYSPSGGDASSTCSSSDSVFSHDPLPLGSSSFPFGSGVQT
# MUSK (human), sequence (O15146 whole entry, looked up): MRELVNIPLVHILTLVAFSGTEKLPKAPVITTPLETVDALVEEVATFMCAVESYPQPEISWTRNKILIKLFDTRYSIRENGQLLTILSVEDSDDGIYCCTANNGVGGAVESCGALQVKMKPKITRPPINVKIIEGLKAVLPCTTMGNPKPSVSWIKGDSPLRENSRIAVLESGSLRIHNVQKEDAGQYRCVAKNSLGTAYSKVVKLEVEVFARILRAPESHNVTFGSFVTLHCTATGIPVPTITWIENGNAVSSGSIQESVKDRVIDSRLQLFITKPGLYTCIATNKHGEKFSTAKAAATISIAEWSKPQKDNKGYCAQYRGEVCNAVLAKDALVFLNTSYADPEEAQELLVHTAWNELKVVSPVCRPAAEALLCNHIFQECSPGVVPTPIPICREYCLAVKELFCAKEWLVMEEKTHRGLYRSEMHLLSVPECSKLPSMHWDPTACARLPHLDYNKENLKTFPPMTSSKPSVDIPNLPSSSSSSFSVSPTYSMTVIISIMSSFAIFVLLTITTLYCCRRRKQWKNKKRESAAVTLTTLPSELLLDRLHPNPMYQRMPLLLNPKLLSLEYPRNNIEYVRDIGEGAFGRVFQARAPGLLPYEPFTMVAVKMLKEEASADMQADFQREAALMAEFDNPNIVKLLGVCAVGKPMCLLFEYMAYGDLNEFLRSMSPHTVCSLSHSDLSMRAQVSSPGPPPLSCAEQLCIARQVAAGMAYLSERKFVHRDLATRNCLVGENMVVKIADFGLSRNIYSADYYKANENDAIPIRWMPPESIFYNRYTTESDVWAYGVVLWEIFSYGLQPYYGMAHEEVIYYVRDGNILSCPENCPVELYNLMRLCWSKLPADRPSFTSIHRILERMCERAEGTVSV
# RPS6KA1 KD1 KD2 (human), sequence (Q15418 whole entry, looked up): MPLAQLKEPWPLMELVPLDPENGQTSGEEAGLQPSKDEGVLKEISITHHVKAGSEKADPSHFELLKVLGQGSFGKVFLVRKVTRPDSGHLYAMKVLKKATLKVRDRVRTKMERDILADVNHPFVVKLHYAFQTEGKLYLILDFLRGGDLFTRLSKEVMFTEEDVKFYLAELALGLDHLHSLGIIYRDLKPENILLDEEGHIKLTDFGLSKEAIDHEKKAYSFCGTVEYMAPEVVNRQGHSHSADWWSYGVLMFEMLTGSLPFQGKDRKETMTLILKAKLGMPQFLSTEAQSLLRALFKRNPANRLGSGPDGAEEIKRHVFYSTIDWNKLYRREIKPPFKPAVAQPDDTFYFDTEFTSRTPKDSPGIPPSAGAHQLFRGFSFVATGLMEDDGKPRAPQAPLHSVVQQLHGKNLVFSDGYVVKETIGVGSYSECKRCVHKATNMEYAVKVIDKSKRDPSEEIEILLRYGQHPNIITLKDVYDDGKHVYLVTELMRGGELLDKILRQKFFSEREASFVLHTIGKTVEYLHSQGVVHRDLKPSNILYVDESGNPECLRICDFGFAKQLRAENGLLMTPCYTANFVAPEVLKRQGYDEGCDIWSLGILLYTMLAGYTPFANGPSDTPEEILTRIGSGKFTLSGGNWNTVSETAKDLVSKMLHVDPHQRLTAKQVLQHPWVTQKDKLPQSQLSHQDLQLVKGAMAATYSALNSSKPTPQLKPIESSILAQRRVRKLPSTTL
compound,measurement,setting,value
O=C(CCCc1ccc(-c2ccccc2F)cc1)Nc1ccc(O)cc1,residual activity,CSK (human),88%
same,residual activity,AKT2 (human),101%
same,residual activity,CDC42BPA (human),103%
same,residual activity,INSR (human),102%
same,residual activity,CAMK1 (human),101%
same,residual activity,TGFBR2 (human),101%
same,residual activity,EPHA8 (human),114%
same,residual activity,MAPKAPK3 (human),91%
same,residual activity,RET (human),111%
same,residual activity,NEK9 (human),92.7%
same,residual activity,PRKG2 (human),102%
same,residual activity,PKN1 (human),105%
same,residual activity,MAP3K8 (human),101%
same,residual activity,PAK1 (human),95.4%
same,residual activity,RPS6KA2 KD1 KD2 (human),101%
same,residual activity,LCK (human),95.5%
same,residual activity,DAPK1 (human),110%
same,residual activity,PAK2 (human),101%
same,residual activity,MAP4K5 (human),94.1%
same,residual activity,ABL2 (human),95.3%
same,residual activity,DYRK1B (human),108%
same,residual activity,FGFR4 (human),106%
same,residual activity,SRPK1 (human),98.6%
same,residual activity,RPS6KB1 (human),102%
same,residual activity,HIPK3 (human),99.4%
same,residual activity,MAPK11 (human),79.7%
same,residual activity,NEK6 (human),99.4%
same,residual activity,TBK1 (human),98.2%
same,residual activity,FLT1 (human),93.1%
same,residual activity,KIT (human),96.3%
same,residual activity,ACVR1 (human),95.2%
same,residual activity,CDK3 CCNE1 (human),92.6%
same,residual activity,ULK2 (human),116%
same,residual activity,MUSK (human),93.1%
same,residual activity,STK3 (human),94.8%
same,residual activity,CHUK (human),97.3%
same,residual activity,TAOK3 (human),91.4%
same,residual activity,PHKG1 (human),89.1%
same,residual activity,RPS6KA1 KD1 KD2 (human),102%
same,residual activity,VRK1 (human),95.5%
same,residual activity,SRC (human),93.7%
same,residual activity,IKBKB (human),101%
COc1cc2ncnc(N3CCN(C(=O)Nc4ccc(Oc5ccccc5)cc4)CC3)c2cc1OC,residual activity,CSK (human),81.3%
same,residual activity,AKT2 (human),87.6%
same,residual activity,CDC42BPA (human),95.4%
same,residual activity,INSR (human),98.2%
same,residual activity,CAMK1 (human),96.9%
same,residual activity,TGFBR2 (human),102%
same,residual activity,EPHA8 (human),92.5%
same,residual activity,MAPKAPK3 (human),94.6%
same,residual activity,RET (human),104%
same,residual activity,NEK9 (human),103%
same,residual activity,PRKG2 (human),97.5%
same,residual activity,PKN1 (human),103%
same,residual activity,MAP3K8 (human),95.1%
same,residual activity,PAK1 (human),91.8%
same,residual activity,RPS6KA2 KD1 KD2 (human),86.1%
same,residual activity,LCK (human),92.3%
same,residual activity,DAPK1 (human),97.5%
same,residual activity,PAK2 (human),104%
same,residual activity,MAP4K5 (human),81.6%
same,residual activity,ABL2 (human),92.9%
same,residual activity,DYRK1B (human),93.5%
same,residual activity,FGFR4 (human),99.7%
same,residual activity,SRPK1 (human),97.5%
same,residual activity,RPS6KB1 (human),89.4%
same,residual activity,HIPK3 (human),87.4%
same,residual activity,MAPK11 (human),99.6%
same,residual activity,NEK6 (human),103%
same,residual activity,TBK1 (human),96.3%
same,residual activity,FLT1 (human),79%
same,residual activity,KIT (human),48.2%
same,residual activity,ACVR1 (human),100%
same,residual activity,CDK3 CCNE1 (human),82%
same,residual activity,ULK2 (human),102%
same,residual activity,MUSK (human),87.4%
same,residual activity,STK3 (human),93.3%
same,residual activity,CHUK (human),96%
same,residual activity,TAOK3 (human),95.3%
same,residual activity,PHKG1 (human),89.5%
same,residual activity,RPS6KA1 KD1 KD2 (human),82%
same,residual activity,VRK1 (human),77.4%
same,residual activity,SRC (human),102%
same,residual activity,IKBKB (human),102%
O=C1Nc2ccccc2/C1=C1\Nc2ccccc2\C1=N/O,residual activity,CSK (human),93%
same,residual activity,AKT2 (human),92%
same,residual activity,CDC42BPA (human),93.7%
same,residual activity,INSR (human),66.8%
same,residual activity,CAMK1 (human),83.7%
same,residual activity,TGFBR2 (human),113%
same,residual activity,EPHA8 (human),91.1%
same,residual activity,MAPKAPK3 (human),103%
same,residual activity,RET (human),8.05%
same,residual activity,NEK9 (human),95.4%
same,residual activity,PRKG2 (human),67.3%
same,residual activity,PKN1 (human),87.5%
same,residual activity,MAP3K8 (human),106%
same,residual activity,PAK1 (human),86.1%
same,residual activity,RPS6KA2 KD1 KD2 (human),42.6%
same,residual activity,LCK (human),77.1%
same,residual activity,DAPK1 (human),83.2%
same,residual activity,PAK2 (human),96.7%
same,residual activity,MAP4K5 (human),37.8%
same,residual activity,ABL2 (human),60.3%
same,residual activity,DYRK1B (human),84.7%
same,residual activity,FGFR4 (human),91.9%
same,residual activity,SRPK1 (human),89.3%
same,residual activity,RPS6KB1 (human),75.9%
same,residual activity,HIPK3 (human),89.2%
same,residual activity,MAPK11 (human),92.9%
same,residual activity,NEK6 (human),92.2%
same,residual activity,TBK1 (human),53.6%
same,residual activity,FLT1 (human),73.6%
same,residual activity,KIT (human),73.2%
same,residual activity,ACVR1 (human),112%
same,residual activity,CDK3 CCNE1 (human),52.3%
same,residual activity,ULK2 (human),103%
same,residual activity,MUSK (human),71.2%
same,residual activity,STK3 (human),19.9%
same,residual activity,CHUK (human),97.6%
same,residual activity,TAOK3 (human),62.6%
same,residual activity,PHKG1 (human),31.5%
same,residual activity,RPS6KA1 KD1 KD2 (human),39.6%
same,residual activity,VRK1 (human),86.3%
same,residual activity,SRC (human),65.1%
same,residual activity,IKBKB (human),96.1%
COc1ccc(OC)c2c(=S)c3ccccc3[nH]c12,residual activity,CSK (human),103%
same,residual activity,AKT2 (human),94.6%
same,residual activity,CDC42BPA (human),82.7%
same,residual activity,INSR (human),102%
same,residual activity,CAMK1 (human),75.2%
same,residual activity,TGFBR2 (human),109%
same,residual activity,EPHA8 (human),93.8%
same,residual activity,MAPKAPK3 (human),87.7%
same,residual activity,RET (human),82.8%
same,residual activity,NEK9 (human),95.8%
same,residual activity,PRKG2 (human),62.2%
same,residual activity,PKN1 (human),109%
same,residual activity,MAP3K8 (human),111%
same,residual activity,PAK1 (human),89.2%
same,residual activity,RPS6KA2 KD1 KD2 (human),87.4%
same,residual activity,LCK (human),94.7%
same,residual activity,DAPK1 (human),106%
same,residual activity,PAK2 (human),104%
same,residual activity,MAP4K5 (human),95.2%
same,residual activity,ABL2 (human),92.5%
same,residual activity,DYRK1B (human),107%
same,residual activity,FGFR4 (human),91.1%
same,residual activity,SRPK1 (human),99.9%
same,residual activity,RPS6KB1 (human),99.4%
same,residual activity,HIPK3 (human),101%
same,residual activity,MAPK11 (human),86.7%
same,residual activity,NEK6 (human),101%
same,residual activity,TBK1 (human),97.5%
same,residual activity,FLT1 (human),101%
same,residual activity,KIT (human),78.6%
same,residual activity,ACVR1 (human),99.2%
same,residual activity,CDK3 CCNE1 (human),87.7%
same,residual activity,ULK2 (human),94.7%
same,residual activity,MUSK (human),87.3%
same,residual activity,STK3 (human),104%
same,residual activity,CHUK (human),94.3%
same,residual activity,TAOK3 (human),92.7%
same,residual activity,PHKG1 (human),83%
same,residual activity,RPS6KA1 KD1 KD2 (human),94.6%
same,residual activity,VRK1 (human),100%
same,residual activity,SRC (human),90.6%
same,residual activity,IKBKB (human),103%
